What was measured:
[1] = target: T1, Solute carrier family 22 member 6 (Rattus norvegicus, UniProt O35956); test: TP_TRANSPORTER: inhibition of PAH uptake in Xenopus laevis oocytes; format: functional, cell-based, Oocyte
T1 sequence (O35956 whole entry): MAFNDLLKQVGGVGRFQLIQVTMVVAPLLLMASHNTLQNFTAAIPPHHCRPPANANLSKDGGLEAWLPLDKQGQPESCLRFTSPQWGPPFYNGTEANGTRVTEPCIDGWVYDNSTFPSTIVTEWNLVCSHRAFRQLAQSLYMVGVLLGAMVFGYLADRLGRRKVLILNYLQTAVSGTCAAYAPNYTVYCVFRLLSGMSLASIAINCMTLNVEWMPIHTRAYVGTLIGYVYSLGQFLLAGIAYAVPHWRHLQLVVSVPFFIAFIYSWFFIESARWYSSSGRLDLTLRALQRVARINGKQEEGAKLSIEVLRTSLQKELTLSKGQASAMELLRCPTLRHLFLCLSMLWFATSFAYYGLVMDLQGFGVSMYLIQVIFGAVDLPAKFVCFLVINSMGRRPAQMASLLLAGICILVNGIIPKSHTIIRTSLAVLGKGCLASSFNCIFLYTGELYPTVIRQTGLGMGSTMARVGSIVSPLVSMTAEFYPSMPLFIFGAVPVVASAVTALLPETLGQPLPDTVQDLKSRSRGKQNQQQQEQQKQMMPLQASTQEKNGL

[2] = target: T1, Solute carrier family 22 member 6; test: TP_TRANSPORTER: uptake in Xenopus laevis oocytes; format: functional, cell-based; conditions: oocyte

CN(C)CCn1nnnc1SCC1=C(C(=O)O)N2C(=O)[C@@H](NC(=O)Cc3csc(N)n3)[C@H]2SC1 [CEFOTIAM]
IC50 [1]: 718 µM | Activity [2]: substrate [+]

CC1=C(C(=O)O)N2C(=O)[C@@H](NC(=O)[C@H](N)c3ccccc3)[C@H]2SC1 [CEPHALEXIN ANHYDROUS]
Activity [2]: substrate [+]

— ChEMBL document CHEMBL2074125 (Drug Metabol Pharmacokin, 2002)
